Assay results as given in patent US8952024B2, “Herbicidal pyrimidone derivatives” (E I du Pont de Nemours and Company, priority 2009, dated 2015).

Legend:
Assay in all cases: Test D pre-/postemergence plant response
Type in all cases: in vivo
[1] = system: Russian thistle (Salsola kali)
Excerpt: (§1) Seeds of plant species selected from bermudagrass (Cynodon dactylon), Surinam grass (Brachiaria decumbens), large crabgrass (Digitaria sanguinalis), green foxtail (Setaria viridis), goosegrass (Eleusine indica), johnsongrass (Sorghum halepense), kochia (Kochia scoparia), morningglory (pitted morningglory, Ipomoea lacunosa), nutsedge (purple nutsedge, Cyperus rotundus), ragweed (common ragweed, Ambrosia elatior), black mustard (Brassica nigra), guineagrass (Panicum maximum), dallisgrass (Paspalum dilatatum), barnyardgrass (Echinochloa crus-galli), sandbur (southern sandbur, Cenchrus echinatus), sowthistle (common sowthistle, Sonchus oleraceous), prickly sida (Sida spinosa), Italian ryegrass (Lolium multiflorum), purslane (common purslane, Portulaca oleracea), signalgrass (broadleaf signalgrass, Brachiaria platyphylla), groundsel (common groundsel, Senecio vulgaris), chickweed (common chickweed, Stellaria media), dayflower (Virginia (VA) dayflower, Commelina virginica), bluegrass (annual bluegrass, Poa annua), naked crabgrass (Digitaria nuda), itchgrass (Rottboellia cochinchinensis), quackgrass (Elytrigia repens), field bindweed (Convolvulus arvensis), spanishneedles (Bidens bipinnata), mallow (common mallow, Malva sylvestris) and Russian thistle (Salsola kali), were planted into a blend of loam soil and sand and treated preemergence with test chemicals formulated in a non-phytotoxic solvent mixture which included a surfactant. At the same time, plants from these weed species were treated with postemergence applications of the test chemicals formulated in the same manner. Plants ranged in height from 2 to 18 cm (1- to 4-leaf stage) for postemergence treatments.
(§2) Treated plants and controls were maintained in a greenhouse for 14 to 21 days, after which time all species were visually evaluated and compared to controls. Plant response ratings, summarized in Table D, are based on a scale of 0 to 100 where 0 is no effect and 100 is complete control. A dash (-) response means no test result.

[2] = system: barnyardgrass (Echinochloa crus-galli)
Excerpt: as §1, §2

[3] = system: bermudagrass (Cynodon dactylon)
Excerpt: as §1, §2

[4] = system: black mustard (Brassica nigra)
Excerpt: as §1, §2

[5] = system: dallisgrass (Paspalum dilatatum)
Excerpt: as §1, §2

[6] = system: dayflower (Virginia (VA) dayflower, Commelina virginica)
Excerpt: as §1, §2

[7] = system: green foxtail (Setaria viridis)
Excerpt: as §1, §2

[8] = system: guineagrass (Panicum maximum)
Excerpt: as §1, §2

[9] = system: itchgrass (Rottboellia cochinchinensis)
Excerpt: as §1, §2

[10] = system: mallow (common mallow, Malva sylvestris)
Excerpt: as §1, §2

[11] = system: prickly sida (Sida spinosa)
Excerpt: as §1, §2

[12] = system: quackgrass (Elytrigia repens)
Excerpt: as §1, §2

[13] = system: ragweed (common ragweed, Ambrosia elatior)
Excerpt: as §1, §2

[14] = system: sandbur (southern sandbur, Cenchrus echinatus)
Excerpt: as §1, §2

[15] = system: signalgrass (broadleaf signalgrass, Brachiaria platyphylla)
Excerpt: as §1, §2

[16] = system: sowthistle (common sowthistle, Sonchus oleraceous)
Excerpt: as §1, §2

[17] = Postemergence, 125 g ai/ha, scale 0 to 100 (0 no effect, 100 complete control)
[18] = Preemergence, 16 g ai/ha, scale 0 to 100, 0 no effect, 100 complete control
[19] = Preemergence, 31 g ai/ha, scale 0 to 100 (0 no effect, 100 complete control)
[20] = Preemergence, 125 g ai/ha, scale 0 to 100
[21] = Postemergence, 16 g ai/ha, scale 0 to 100
[22] = Postemergence, 31 g ai/ha, scale 0 to 100 (0 no effect, 100 complete control)
[23] = Postemergence, 62 g ai/ha, scale 0 to 100 (0 no effect, 100 complete control)
[24] = Preemergence, 62 g ai/ha, scale 0 to 100
[25] = Postemergence, 31 g ai/ha, scale 0 to 100

O=C1CCCC(O)=C1C(=O)c1cnc(C2CC2)n(-c2ccccc2)c1=O [Compound 87]
Plant response rating, Russian Thistle [1, 17]: 35 | Plant response rating, Russian Thistle [1, 18]: 50 | Plant response rating, Russian Thistle [1, 19]: 75 | Plant response rating, Russian Thistle [1, 20]: 100 | Plant response rating, Barnyardgrass [2, 21]: 35 | Plant response rating, Barnyardgrass [2, 22]: 50 | Plant response rating, Barnyardgrass [2, 17]: 70 | Plant response rating, Barnyardgrass [2, 23]: 60 | Plant response rating, Barnyardgrass [2, 18]: 0 | Plant response rating, Barnyardgrass [2, 19]: 5 | Plant response rating, Barnyardgrass [2, 24]: 50 | Plant response rating, Barnyardgrass [2, 20]: 95 | Plant response rating, Bermudagrass [3, 21]: 65 | Plant response rating, Bermudagrass [3, 22]: 65 | Plant response rating, Bermudagrass [3, 17]: 85 | Plant response rating, Bermudagrass [3, 23]: 70 | Plant response rating, Bermudagrass [3, 18]: 65 | Plant response rating, Bermudagrass [3, 19]: 65 | Plant response rating, Bermudagrass [3, 24]: 98 | Plant response rating, Bermudagrass [3, 20]: 98 | Plant response rating, Black Mustard [4, 21]: 40 | Plant response rating, Black Mustard [4, 22]: 65 | Plant response rating, Black Mustard [4, 17]: 100 | Plant response rating, Black Mustard [4, 23]: 100 | Plant response rating, Black Mustard [4, 18]: 75 | Plant response rating, Black Mustard [4, 19]: 75 | Plant response rating, Black Mustard [4, 24]: 100 | Plant response rating, Black Mustard [4, 20]: 100 | Plant response rating, Dallisgrass [5, 21]: 25 | Plant response rating, Dallisgrass [5, 25]: 25 | Plant response rating, Dallisgrass [5, 17]: 75 | Plant response rating, Dallisgrass [5, 23]: 50 | Plant response rating, Dallisgrass [5, 18]: 50 | Plant response rating, Dallisgrass [5, 19]: 50 | Plant response rating, Dallisgrass [5, 24]: 80 | Plant response rating, Dallisgrass [5, 20]: 98 | Plant response rating, Dayflower, VA [6, 21]: 10 | Plant response rating, Dayflower, VA [6, 25]: 35 | Plant response rating, Dayflower, VA [6, 17]: 70 | Plant response rating, Dayflower, VA [6, 23]: 60 | Plant response rating, Dayflower, VA [6, 18]: 0 | Plant response rating, Dayflower, VA [6, 19]: 0 | Plant response rating, Dayflower, VA [6, 24]: 65 | Plant response rating, Dayflower, VA [6, 20]: 65 | Plant response rating, Foxtail, Green [7, 21]: 5 | Plant response rating, Foxtail, Green [7, 25]: 30 | Plant response rating, Foxtail, Green [7, 17]: 60 | Plant response rating, Foxtail, Green [7, 23]: 35 | Plant response rating, Foxtail, Green [7, 18]: 0 | Plant response rating, Foxtail, Green [7, 19]: 0 | Plant response rating, Foxtail, Green [7, 24]: 0 | Plant response rating, Foxtail, Green [7, 20]: 10 | Plant response rating, Guineagrass [8, 21]: 10 | Plant response rating, Guineagrass [8, 25]: 20 | Plant response rating, Guineagrass [8, 17]: 30 | Plant response rating, Guineagrass [8, 23]: 20 | Plant response rating, Guineagrass [8, 18]: 0 | Plant response rating, Guineagrass [8, 19]: 0 | Plant response rating, Guineagrass [8, 24]: 50 | Plant response rating, Guineagrass [8, 20]: 75 | Plant response rating, Itchgrass [9, 21]: 0 | Plant response rating, Itchgrass [9, 25]: 0 | Plant response rating, Itchgrass [9, 17]: 30 | Plant response rating, Itchgrass [9, 23]: 30 | Plant response rating, Itchgrass [9, 18]: 0 | Plant response rating, Itchgrass [9, 19]: 20 | Plant response rating, Itchgrass [9, 24]: 20 | Plant response rating, Itchgrass [9, 20]: 20 | Plant response rating, Mallow [10, 21]: 40 | Plant response rating, Mallow [10, 25]: 60 | Plant response rating, Mallow [10, 17]: 70 | Plant response rating, Mallow [10, 23]: 70 | Plant response rating, Mallow [10, 24]: 80 | Plant response rating, Mallow [10, 20]: 100 | Plant response rating, Prickly Sida [11, 21]: 70 | Plant response rating, Prickly Sida [11, 25]: 80 | Plant response rating, Prickly Sida [11, 17]: 95 | Plant response rating, Prickly Sida [11, 23]: 80 | Plant response rating, Prickly Sida [11, 18]: 50 | Plant response rating, Prickly Sida [11, 19]: 60 | Plant response rating, Prickly Sida [11, 24]: 100 | Plant response rating, Prickly Sida [11, 20]: 100 | Plant response rating, Quackgrass [12, 21]: 0 | Plant response rating, Quackgrass [12, 25]: 0 | Plant response rating, Quackgrass [12, 17]: 5 | Plant response rating, Quackgrass [12, 23]: 0 | Plant response rating, Quackgrass [12, 18]: 0 | Plant response rating, Quackgrass [12, 19]: 0 | Plant response rating, Quackgrass [12, 20]: 0 | Plant response rating, Ragweed [13, 21]: 70 | Plant response rating, Ragweed [13, 25]: 80 | Plant response rating, Ragweed [13, 17]: 98 | Plant response rating, Ragweed [13, 23]: 95 | Plant response rating, Ragweed [13, 18]: 30 | Plant response rating, Ragweed [13, 19]: 98 | Plant response rating, Ragweed [13, 20]: 98 | Plant response rating, Sandbur [14, 21]: 5 | Plant response rating, Sandbur [14, 25]: 5 | Plant response rating, Sandbur [14, 17]: 35 | Plant response rating, Sandbur [14, 23]: 20 | Plant response rating, Sandbur [14, 18]: 0 | Plant response rating, Sandbur [14, 19]: 25 | Plant response rating, Sandbur [14, 20]: 95 | Plant response rating, Signalgrass [15, 21]: 20 | Plant response rating, Signalgrass [15, 25]: 30 | Plant response rating, Signalgrass [15, 17]: 60 | Plant response rating, Signalgrass [15, 23]: 60 | Plant response rating, Signalgrass [15, 18]: 0 | Plant response rating, Signalgrass [15, 19]: 0 | Plant response rating, Signalgrass [15, 20]: 75 | Plant response rating, Sowthistle [16, 21]: 90 | Plant response rating, Sowthistle [16, 25]: 98 | Plant response rating, Sowthistle [16, 17]: 100 | Plant response rating, Sowthistle [16, 23]: 98 | Plant response rating, Sowthistle [16, 18]: 98 | Plant response rating, Sowthistle [16, 19]: 100 | Plant response rating, Sowthistle [16, 20]: 100
